Data as given in publication PMC8909834, “An Orally Bioavailable and Highly Efficacious Inhibitor of CDK9/FLT3 for the Treatment of Acute Myeloid Leukemia” (Cancers, 2022).

Key:
Experiment in all cases: Kinase Hotspot radiolabel assay
Assay type in all cases: biochemical
Settings in all cases: read-out: % Residual Activity
CLK3 = biological target: T1, CLK3 (Homo sapiens, UniProt P49761)
T1 construct: purchased Reaction Biology Corporation (Kinase HotSpot)
Outline: (§1)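 Step one: screen at 1 µM across 369 kinases (Hotspot, radiolabel detection). Step two: Ki determination for kinases with >90% inhibition.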

JAK3 = biological target: T2, JAK3 (Homo sapiens, UniProt P52333)
T2 construct: purchased Reaction Biology Corporation (Kinase HotSpot)
Outline: as §1

ROCK2 = biological target: T3, ROCK2 (Homo sapiens, UniProt O75116)
T3 construct: purchased Reaction Biology Corporation (Kinase HotSpot)
Outline: as §1

NEK8 = biological target: T4, NEK8 (Homo sapiens, UniProt Q86SG6)
T4 construct: purchased Reaction Biology Corporation (Kinase HotSpot)
Outline: as §1

MAPKAPK3 = biological target: T5, MAPKAPK3 (Homo sapiens, UniProt Q16644)
T5 construct: purchased Reaction Biology Corporation (Kinase HotSpot)
Outline: as §1

RIPK3 = biological target: T6, RIPK3 (Homo sapiens, UniProt Q9Y572)
T6 construct: purchased Reaction Biology Corporation (Kinase HotSpot)
Outline: as §1

FMS = biological target: T7, FMS (Homo sapiens, UniProt P07333)
T7 construct: purchased Reaction Biology Corporation (Kinase HotSpot)
Outline: as §1

P38d/MAPK13 = biological target: T8, P38d/MAPK13 (Homo sapiens, UniProt O15264)
T8 construct: purchased Reaction Biology Corporation (Kinase HotSpot)
Outline: as §1

PDK1/PDPK1 = biological target: T9, PDK1/PDPK1 (Homo sapiens, UniProt O15530)
T9 construct: purchased Reaction Biology Corporation (Kinase HotSpot)
Outline: as §1

PEAK1 = biological target: T10, PEAK1 (Homo sapiens, UniProt Q9H792)
T10 construct: purchased Reaction Biology Corporation (Kinase HotSpot)
Outline: as §1

NEK11 = biological target: T11, NEK11 (Homo sapiens, UniProt Q8NG66)
T11 construct: purchased Reaction Biology Corporation (Kinase HotSpot)
Outline: as §1

ALK6/BMPR1B = biological target: T12, ALK6/BMPR1B (Homo sapiens, UniProt O00238)
T12 construct: purchased Reaction Biology Corporation (Kinase HotSpot)
Outline: as §1

GRK2 = biological target: T13, GRK2 (Homo sapiens, UniProt P25098)
T13 construct: purchased Reaction Biology Corporation (Kinase HotSpot)
Outline: as §1

DMPK2 = biological target: T14, DMPK2 (Homo sapiens, UniProt Q6DT37)
T14 construct: purchased Reaction Biology Corporation (Kinase HotSpot)
Outline: as §1

LATS1 = biological target: T15, LATS1 (Homo sapiens, UniProt O95835)
T15 construct: purchased Reaction Biology Corporation (Kinase HotSpot)
Outline: as §1

CDK9/cyclin T2 = biological target: T16, CDK9/cyclin T2 (Homo sapiens, UniProt P50750)
T16 construct: purchased Reaction Biology Corporation (Kinase HotSpot)
Outline: as §1

CDK9/cyclin K = biological target: T17, CDK9/cyclin K (Homo sapiens, UniProt P50750)
T17 construct: purchased Reaction Biology Corporation (Kinase HotSpot)
Outline: as §1

HIPK1 = biological target: T18, HIPK1 (Homo sapiens, UniProt Q86Z02)
T18 construct: purchased Reaction Biology Corporation (Kinase HotSpot)
Outline: as §1

CDK14/cyclin Y (PFTK1) = biological target: T19, CDK14/cyclin Y (PFTK1) (Homo sapiens, UniProt O94921)
T19 construct: purchased Reaction Biology Corporation (Kinase HotSpot)
Outline: as §1

KHS/MAP4K5 = biological target: T20, KHS/MAP4K5 (Homo sapiens, UniProt Q9Y4K4)
T20 construct: purchased Reaction Biology Corporation (Kinase HotSpot)
Outline: as §1

STK33 = biological target: T21, STK33 (Homo sapiens, UniProt Q9BYT3)
T21 construct: purchased Reaction Biology Corporation (Kinase HotSpot)
Outline: as §1

DCAMKL2 = biological target: T22, DCAMKL2 (Homo sapiens, UniProt Q8N568)
T22 construct: purchased Reaction Biology Corporation (Kinase HotSpot)
Outline: as §1

CLK4 = biological target: T23, CLK4 (Homo sapiens, UniProt Q9HAZ1)
T23 construct: purchased Reaction Biology Corporation (Kinase HotSpot)
Outline: as §1

ALK4/ACVR1B = biological target: T24, ALK4/ACVR1B (Homo sapiens, UniProt P36896)
T24 construct: purchased Reaction Biology Corporation (Kinase HotSpot)
Outline: as §1

FER = biological target: T25, FER (Homo sapiens, UniProt P16591)
T25 construct: purchased Reaction Biology Corporation (Kinase HotSpot)
Outline: as §1

HIPK4 = biological target: T26, HIPK4 (Homo sapiens, UniProt Q8NE63)
T26 construct: purchased Reaction Biology Corporation (Kinase HotSpot)
Outline: as §1

GCK/MAP4K2 = biological target: T27, GCK/MAP4K2 (Homo sapiens, UniProt Q12851)
T27 construct: purchased Reaction Biology Corporation (Kinase HotSpot)
Outline: as §1

EPHA2 = biological target: T28, EPHA2 (Homo sapiens, UniProt P29317)
T28 construct: purchased Reaction Biology Corporation (Kinase HotSpot)
Outline: as §1

PAK5 = biological target: T29, PAK5 (Homo sapiens, UniProt Q9P286)
T29 construct: purchased Reaction Biology Corporation (Kinase HotSpot)
Outline: as §1

PLK2 = biological target: T30, PLK2 (Homo sapiens, UniProt Q9NYY3)
T30 construct: purchased Reaction Biology Corporation (Kinase HotSpot)
Outline: as §1

T11 sequence (Q8NG66 whole entry): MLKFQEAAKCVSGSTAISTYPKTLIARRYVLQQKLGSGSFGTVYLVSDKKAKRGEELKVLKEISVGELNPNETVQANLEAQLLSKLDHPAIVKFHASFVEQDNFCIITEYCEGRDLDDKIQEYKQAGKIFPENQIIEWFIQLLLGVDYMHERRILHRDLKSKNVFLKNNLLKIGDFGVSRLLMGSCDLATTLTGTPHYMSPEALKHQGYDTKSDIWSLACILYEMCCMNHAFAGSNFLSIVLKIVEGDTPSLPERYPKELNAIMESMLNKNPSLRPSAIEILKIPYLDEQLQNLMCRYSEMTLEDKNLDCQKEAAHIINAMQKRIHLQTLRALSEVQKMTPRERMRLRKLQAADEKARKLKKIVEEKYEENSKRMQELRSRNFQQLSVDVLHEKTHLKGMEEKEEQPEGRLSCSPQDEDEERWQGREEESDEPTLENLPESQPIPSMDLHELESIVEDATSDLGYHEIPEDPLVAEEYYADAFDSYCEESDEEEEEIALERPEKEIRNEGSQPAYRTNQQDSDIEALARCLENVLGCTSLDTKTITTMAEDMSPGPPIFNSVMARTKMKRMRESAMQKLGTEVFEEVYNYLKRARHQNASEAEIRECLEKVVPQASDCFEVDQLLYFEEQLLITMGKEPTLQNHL
T19 sequence (O94921 whole entry): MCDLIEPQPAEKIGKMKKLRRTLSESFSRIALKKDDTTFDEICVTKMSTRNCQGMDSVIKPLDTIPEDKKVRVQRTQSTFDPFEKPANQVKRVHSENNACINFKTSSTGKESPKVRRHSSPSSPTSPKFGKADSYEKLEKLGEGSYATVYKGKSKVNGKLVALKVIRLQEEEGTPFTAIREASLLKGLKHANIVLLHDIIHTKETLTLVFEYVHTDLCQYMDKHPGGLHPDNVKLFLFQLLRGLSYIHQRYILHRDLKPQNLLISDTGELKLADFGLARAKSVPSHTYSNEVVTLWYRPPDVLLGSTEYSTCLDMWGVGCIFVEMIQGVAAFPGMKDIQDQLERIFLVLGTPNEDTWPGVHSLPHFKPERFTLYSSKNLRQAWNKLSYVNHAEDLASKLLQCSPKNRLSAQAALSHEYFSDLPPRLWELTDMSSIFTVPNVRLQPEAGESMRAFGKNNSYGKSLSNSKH
T19 sequence (Q8ND76 whole entry partner): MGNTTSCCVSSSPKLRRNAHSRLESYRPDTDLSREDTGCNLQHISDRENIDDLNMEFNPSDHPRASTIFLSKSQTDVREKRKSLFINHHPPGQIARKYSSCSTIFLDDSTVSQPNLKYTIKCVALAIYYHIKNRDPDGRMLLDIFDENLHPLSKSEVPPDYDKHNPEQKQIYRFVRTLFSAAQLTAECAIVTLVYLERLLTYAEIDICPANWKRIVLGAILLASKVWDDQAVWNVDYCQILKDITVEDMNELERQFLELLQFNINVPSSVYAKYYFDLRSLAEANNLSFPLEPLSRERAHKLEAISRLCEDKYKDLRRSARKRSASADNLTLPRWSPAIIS
T2 sequence (P52333 whole entry): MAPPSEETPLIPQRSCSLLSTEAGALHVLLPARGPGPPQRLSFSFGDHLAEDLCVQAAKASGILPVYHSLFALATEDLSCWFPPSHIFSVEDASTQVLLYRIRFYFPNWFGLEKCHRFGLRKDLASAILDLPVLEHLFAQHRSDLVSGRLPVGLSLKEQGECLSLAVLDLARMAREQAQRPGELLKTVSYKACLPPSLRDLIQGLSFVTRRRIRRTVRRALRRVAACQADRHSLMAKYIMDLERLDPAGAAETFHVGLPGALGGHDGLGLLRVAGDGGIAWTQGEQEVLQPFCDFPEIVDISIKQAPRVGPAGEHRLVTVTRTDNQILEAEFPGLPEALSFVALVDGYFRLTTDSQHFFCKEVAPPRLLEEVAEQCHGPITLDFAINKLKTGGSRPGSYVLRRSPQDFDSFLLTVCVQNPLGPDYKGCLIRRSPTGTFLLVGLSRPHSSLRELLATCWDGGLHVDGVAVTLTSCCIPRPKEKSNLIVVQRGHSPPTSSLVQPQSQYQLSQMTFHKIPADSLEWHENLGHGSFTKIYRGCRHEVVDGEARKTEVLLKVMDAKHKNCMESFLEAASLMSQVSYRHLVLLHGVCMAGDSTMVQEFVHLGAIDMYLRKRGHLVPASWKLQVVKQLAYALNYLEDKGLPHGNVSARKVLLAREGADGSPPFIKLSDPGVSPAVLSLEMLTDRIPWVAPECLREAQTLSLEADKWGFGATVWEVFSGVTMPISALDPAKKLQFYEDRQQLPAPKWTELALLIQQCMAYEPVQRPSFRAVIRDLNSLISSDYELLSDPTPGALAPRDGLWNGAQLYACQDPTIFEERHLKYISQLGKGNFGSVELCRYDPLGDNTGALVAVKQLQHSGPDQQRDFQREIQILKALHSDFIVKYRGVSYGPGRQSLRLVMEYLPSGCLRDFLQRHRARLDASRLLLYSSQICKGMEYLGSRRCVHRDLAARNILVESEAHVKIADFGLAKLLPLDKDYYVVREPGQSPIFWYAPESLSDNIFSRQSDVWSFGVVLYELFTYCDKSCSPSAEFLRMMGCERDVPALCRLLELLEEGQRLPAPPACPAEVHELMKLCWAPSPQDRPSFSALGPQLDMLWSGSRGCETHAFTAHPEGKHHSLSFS
T16 sequence (P50750 whole entry): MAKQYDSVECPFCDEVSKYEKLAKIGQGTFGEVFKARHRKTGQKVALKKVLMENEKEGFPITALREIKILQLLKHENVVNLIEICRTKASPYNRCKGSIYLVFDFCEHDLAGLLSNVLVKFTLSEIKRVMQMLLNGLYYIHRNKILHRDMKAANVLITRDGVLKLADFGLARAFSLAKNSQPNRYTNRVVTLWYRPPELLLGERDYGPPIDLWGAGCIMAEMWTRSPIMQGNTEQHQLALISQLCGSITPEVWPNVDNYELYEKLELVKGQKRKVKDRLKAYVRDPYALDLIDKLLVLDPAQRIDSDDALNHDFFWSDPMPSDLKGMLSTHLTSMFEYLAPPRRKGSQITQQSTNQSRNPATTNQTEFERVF
T16 sequence (O60583 whole entry partner): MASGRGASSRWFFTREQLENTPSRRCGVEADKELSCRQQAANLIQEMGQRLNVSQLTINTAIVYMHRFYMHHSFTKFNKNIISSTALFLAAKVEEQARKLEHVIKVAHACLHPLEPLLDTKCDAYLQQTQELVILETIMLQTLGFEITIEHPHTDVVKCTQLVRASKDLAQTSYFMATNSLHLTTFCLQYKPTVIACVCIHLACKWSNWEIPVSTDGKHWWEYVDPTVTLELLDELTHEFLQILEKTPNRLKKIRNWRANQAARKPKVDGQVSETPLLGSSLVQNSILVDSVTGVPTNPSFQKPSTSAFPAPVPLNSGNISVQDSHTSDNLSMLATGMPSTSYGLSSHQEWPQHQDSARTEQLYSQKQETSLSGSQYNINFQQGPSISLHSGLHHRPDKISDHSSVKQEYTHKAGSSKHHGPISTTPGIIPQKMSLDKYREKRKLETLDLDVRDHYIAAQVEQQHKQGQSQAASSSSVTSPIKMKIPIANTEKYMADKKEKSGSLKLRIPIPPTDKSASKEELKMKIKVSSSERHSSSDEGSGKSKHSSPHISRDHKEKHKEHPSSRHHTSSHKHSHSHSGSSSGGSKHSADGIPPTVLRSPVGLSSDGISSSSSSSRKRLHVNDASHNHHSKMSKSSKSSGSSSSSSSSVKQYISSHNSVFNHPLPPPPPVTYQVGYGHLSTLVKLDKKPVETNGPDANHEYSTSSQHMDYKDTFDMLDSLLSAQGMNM
T17 sequence (P50750 whole entry): as the sequence (P50750 whole entry) above
T17 sequence (O75909 whole entry partner): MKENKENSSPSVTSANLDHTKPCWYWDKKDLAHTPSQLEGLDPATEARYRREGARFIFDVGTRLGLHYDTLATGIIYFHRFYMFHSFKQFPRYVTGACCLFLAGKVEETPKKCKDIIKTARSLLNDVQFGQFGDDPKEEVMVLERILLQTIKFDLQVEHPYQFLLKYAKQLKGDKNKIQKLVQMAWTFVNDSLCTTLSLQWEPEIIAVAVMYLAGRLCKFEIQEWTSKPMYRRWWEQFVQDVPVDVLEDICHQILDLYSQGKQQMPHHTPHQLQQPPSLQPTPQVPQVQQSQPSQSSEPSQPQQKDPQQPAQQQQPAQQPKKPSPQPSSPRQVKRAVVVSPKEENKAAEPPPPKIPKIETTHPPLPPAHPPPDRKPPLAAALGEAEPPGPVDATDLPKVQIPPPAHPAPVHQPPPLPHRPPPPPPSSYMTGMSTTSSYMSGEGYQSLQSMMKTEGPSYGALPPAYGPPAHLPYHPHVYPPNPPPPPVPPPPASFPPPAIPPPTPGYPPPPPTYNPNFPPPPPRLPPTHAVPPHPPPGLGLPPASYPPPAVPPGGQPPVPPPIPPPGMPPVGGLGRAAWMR
T23 sequence (Q9HAZ1 whole entry): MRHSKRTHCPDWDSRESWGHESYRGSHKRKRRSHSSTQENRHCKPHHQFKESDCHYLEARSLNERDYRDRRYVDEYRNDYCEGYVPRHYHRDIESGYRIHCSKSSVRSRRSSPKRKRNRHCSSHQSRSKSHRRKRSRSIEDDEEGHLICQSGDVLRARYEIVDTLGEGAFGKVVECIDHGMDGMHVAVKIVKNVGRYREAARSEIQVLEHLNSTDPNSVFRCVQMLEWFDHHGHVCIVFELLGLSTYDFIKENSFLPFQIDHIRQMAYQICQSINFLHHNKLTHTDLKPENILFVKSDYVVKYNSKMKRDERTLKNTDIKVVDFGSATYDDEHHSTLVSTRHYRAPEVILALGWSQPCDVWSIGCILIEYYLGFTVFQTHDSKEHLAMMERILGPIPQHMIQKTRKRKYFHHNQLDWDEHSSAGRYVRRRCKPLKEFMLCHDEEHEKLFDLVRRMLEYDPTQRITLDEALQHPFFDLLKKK

SMILES: Cc1cnc(N[C@H]2CC[C@H](N)CC2)nc1-c1cnc2ccc(-c3ccccc3)cn12 [CDDD11-8]
- remaining activity at 1 µM (CLK3): 85.9%
- remaining activity at 1 µM (JAK3): 48.5%
- remaining activity at 1 µM (ROCK2): 88.9%
- remaining activity at 1 µM (NEK8): 72.8%
- remaining activity at 1 µM (MAPKAPK3): 91.8%
- remaining activity at 1 µM (RIPK3): 97.5%
- remaining activity at 1 µM (FMS): 73%
- remaining activity at 1 µM (P38d/MAPK13): 99%
- remaining activity at 1 µM (PDK1/PDPK1): 105%
- remaining activity at 1 µM (PEAK1): 57.3%
- remaining activity at 1 µM (NEK11): 100%
- remaining activity at 1 µM (ALK6/BMPR1B): 105%
- remaining activity at 1 µM (GRK2): 95.9%
- remaining activity at 1 µM (DMPK2): 26.3%
- remaining activity at 1 µM (LATS1): 57.4%
- remaining activity at 1 µM (CDK9/cyclin T2): 2.35%
- remaining activity at 1 µM (CDK9/cyclin K): 6.4%
- remaining activity at 1 µM (HIPK1): 105%
- remaining activity at 1 µM (CDK14/cyclin Y (PFTK1)): 68.8%
- remaining activity at 1 µM (KHS/MAP4K5): 20.3%
- remaining activity at 1 µM (STK33): 70.3%
- remaining activity at 1 µM (DCAMKL2): 108%
- remaining activity at 1 µM (CLK4): 26.1%
- remaining activity at 1 µM (ALK4/ACVR1B): 95.3%
- remaining activity at 1 µM (FER): 70%
- remaining activity at 1 µM (HIPK4): 52.4%
- remaining activity at 1 µM (GCK/MAP4K2): 24.8%
- remaining activity at 1 µM (EPHA2): 86.4%
- remaining activity at 1 µM (PAK5): 86.2%
- remaining activity at 1 µM (PLK2): 97.5%
